Source: US10633397B2, “Substituted polycyclic pyridone derivatives and prodrugs thereof” (priority 2015, dated 2020)

What was measured:
CYP1A2 = biological target: T1, CYP1A2 (Homo sapiens, UniProt P05177); experiment: biochemical; format: in vitro ADME
T1 construct: Using commercially available pooled human hepatic microsome; from tissue
T1 sequence (P05177 1-516): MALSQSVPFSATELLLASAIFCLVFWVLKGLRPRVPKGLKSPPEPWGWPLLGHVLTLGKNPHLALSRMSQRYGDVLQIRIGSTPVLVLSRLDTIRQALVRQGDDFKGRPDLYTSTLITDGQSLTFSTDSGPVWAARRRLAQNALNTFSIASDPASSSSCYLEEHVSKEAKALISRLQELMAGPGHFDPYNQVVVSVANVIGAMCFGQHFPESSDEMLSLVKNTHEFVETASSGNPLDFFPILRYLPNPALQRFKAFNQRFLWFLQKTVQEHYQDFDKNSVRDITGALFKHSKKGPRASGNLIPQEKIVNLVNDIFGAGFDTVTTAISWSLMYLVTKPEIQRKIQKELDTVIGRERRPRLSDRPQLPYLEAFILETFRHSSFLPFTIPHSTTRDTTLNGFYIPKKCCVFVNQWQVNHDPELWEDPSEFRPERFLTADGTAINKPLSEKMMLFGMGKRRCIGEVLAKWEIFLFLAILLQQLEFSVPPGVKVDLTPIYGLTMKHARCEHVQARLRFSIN
Description: (§1) Test Example 3: CYP Inhibition Test
(§2) Using commercially available pooled human hepatic microsome, and employing, as markers, 7-ethoxyresorufin O-deethylation (CYP1A2), tolbutamide methyl-hydroxylation (CYP2C9), mephenytoin 4′-hydroxylation (CYP2C19), dextromethorphan O-demethylation (CYP2D6), and terfenedine hydroxylation (CYP3A4) as typical substrate metabolism reactions of human main five CYP enzyme forms (CYP1A2, 2C9, 2C19, 2D6, 3A4), an inhibitory degree of each metabolite production amount by a compound of the present invention was assessed.
(§3) The reaction conditions were as follows: substrate, 0.5 μmol/L ethoxyresorufin (CYP1A2), 100 μmol/L tolbutamide (CYP2C9), 50 μmol/L S-mephenytoinmephenitoin (CYP2C19), 5 μmol/L dextromethorphan (CYP2D6), 1 μmol/L terfenedine (CYP3A4); reaction time, 15 minutes; reaction temperature, 37° C.; enzyme, pooled human hepatic microsome 0.2 mg protein/mL; concentration of a compound of the present invention, 1, 5, 10, 20 μmol/L (four points).
(§4) Each five kinds of substrates, human hepatic microsome, or a compound of the present invention in 50 mmol/L Hepes buffer as a reaction solution was added to a 96-well plate at the composition as described above, NADPH, as a cofactor was added to initiate metabolism reactions as markers and, after the incubation at 37° C. for 15 minutes, a methanol/acetonitrile=1/1 (v/v) solution was added to stop the reaction. After the centrifugation at 3000 rpm for 15 minutes, resorufin (CYP1A2 metabolite) in the supernatant was quantified by a fluorescent multilabel counter and toltributamide hydroxide (CYP2C9P metabolite), mephenytoin 4′ hydroxide (CYP2C19 metabolite), […] (CYP2D6 metabolite), and terfenadine alcohol (CYP3A4 metabolite) were quantified by LC/MS/MS.

CYP2C19 = biological target: T2, CYP2C19 (Homo sapiens, UniProt P33261); experiment: biochemical; format: in vitro ADME
T2 construct: Using commercially available pooled human hepatic microsome; from tissue
T2 sequence (P33261 whole entry): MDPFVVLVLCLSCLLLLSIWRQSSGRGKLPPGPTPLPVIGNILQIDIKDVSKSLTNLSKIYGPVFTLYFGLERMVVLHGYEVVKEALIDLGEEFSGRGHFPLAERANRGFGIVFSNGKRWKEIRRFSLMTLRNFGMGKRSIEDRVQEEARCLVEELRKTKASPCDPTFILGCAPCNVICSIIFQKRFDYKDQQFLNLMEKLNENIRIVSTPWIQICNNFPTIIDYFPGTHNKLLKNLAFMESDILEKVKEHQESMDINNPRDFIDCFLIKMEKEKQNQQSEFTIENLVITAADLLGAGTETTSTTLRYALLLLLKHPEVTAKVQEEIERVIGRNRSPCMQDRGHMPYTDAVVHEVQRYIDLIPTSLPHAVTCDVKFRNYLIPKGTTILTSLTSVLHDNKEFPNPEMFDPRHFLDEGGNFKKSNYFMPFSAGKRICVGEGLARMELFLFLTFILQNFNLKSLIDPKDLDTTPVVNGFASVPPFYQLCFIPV
Description: as §1, §2, §3, §4

CYP2C9 = biological target: T3, CYP2C9 (Homo sapiens, UniProt P11712); experiment: biochemical; format: in vitro ADME
T3 construct: Using commercially available pooled human hepatic microsome; from tissue
T3 sequence (P11712 whole entry): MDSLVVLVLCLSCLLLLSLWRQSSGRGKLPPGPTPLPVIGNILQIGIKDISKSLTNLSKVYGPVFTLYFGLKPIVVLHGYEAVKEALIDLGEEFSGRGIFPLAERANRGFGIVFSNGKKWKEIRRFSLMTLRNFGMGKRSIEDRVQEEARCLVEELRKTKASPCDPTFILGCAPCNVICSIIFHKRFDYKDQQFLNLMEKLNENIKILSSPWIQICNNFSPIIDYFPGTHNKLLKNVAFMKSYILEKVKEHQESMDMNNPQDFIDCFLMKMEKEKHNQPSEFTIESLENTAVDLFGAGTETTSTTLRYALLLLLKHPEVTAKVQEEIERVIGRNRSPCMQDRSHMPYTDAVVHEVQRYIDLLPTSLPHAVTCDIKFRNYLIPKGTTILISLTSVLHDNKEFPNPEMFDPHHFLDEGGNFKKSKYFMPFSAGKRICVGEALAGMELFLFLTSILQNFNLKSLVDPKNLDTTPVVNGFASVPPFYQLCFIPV
Description: as §1, §2, §3, §4

CYP2D6 = biological target: T4, CYP2D6 (Homo sapiens, UniProt P10635); experiment: biochemical; format: in vitro ADME
T4 construct: Using commercially available pooled human hepatic microsome; from tissue
T4 sequence (P10635 whole entry): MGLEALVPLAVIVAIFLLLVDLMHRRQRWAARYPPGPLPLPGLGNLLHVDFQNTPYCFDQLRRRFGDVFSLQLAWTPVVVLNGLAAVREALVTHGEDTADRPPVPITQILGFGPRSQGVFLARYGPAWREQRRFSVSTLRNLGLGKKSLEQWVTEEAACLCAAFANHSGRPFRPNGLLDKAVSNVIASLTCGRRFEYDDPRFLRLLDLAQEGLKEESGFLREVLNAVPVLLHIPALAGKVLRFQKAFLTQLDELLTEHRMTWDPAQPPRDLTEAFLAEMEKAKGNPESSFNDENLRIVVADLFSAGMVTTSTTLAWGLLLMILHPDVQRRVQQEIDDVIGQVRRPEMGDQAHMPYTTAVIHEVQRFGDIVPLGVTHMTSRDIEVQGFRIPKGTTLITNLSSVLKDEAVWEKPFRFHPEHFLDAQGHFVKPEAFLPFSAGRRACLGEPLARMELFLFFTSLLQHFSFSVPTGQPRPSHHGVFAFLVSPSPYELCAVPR
Description: as §1, §2, §3, §4

CYP3A4 = biological target: T5, CYP3A4 (Homo sapiens, UniProt P08684); experiment: biochemical; format: in vitro ADME
T5 construct: Using commercially available pooled human hepatic microsome; from tissue
T5 sequence (P08684 whole entry): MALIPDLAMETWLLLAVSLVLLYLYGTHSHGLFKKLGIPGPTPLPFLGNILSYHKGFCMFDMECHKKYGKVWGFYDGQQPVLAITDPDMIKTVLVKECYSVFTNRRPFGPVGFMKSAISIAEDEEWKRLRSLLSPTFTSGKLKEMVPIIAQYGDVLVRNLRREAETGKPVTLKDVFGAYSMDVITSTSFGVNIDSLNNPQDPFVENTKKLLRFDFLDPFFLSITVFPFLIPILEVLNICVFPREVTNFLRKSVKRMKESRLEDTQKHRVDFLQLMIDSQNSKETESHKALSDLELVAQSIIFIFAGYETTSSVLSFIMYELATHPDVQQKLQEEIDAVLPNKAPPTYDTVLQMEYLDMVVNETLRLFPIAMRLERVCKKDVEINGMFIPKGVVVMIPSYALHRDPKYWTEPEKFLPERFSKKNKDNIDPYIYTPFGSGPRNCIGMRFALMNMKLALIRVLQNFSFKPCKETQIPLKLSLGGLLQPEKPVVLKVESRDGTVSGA
Description: as §1, §2, §3, §4

hERG (IKr) = biological target: T6, hERG (IKr) (Homo sapiens, UniProt Q12809); experiment: hERG test; format: cell-based; settings: HEK293 cells expressing hERG channel, pH 7.4, 0.3 to 10 μM of test compound, read-out: % inhibition of tail peak current (IKr)
T6 construct: expressed in transfected cells; host or cells: HEK293
T6 sequence (Q12809 whole entry): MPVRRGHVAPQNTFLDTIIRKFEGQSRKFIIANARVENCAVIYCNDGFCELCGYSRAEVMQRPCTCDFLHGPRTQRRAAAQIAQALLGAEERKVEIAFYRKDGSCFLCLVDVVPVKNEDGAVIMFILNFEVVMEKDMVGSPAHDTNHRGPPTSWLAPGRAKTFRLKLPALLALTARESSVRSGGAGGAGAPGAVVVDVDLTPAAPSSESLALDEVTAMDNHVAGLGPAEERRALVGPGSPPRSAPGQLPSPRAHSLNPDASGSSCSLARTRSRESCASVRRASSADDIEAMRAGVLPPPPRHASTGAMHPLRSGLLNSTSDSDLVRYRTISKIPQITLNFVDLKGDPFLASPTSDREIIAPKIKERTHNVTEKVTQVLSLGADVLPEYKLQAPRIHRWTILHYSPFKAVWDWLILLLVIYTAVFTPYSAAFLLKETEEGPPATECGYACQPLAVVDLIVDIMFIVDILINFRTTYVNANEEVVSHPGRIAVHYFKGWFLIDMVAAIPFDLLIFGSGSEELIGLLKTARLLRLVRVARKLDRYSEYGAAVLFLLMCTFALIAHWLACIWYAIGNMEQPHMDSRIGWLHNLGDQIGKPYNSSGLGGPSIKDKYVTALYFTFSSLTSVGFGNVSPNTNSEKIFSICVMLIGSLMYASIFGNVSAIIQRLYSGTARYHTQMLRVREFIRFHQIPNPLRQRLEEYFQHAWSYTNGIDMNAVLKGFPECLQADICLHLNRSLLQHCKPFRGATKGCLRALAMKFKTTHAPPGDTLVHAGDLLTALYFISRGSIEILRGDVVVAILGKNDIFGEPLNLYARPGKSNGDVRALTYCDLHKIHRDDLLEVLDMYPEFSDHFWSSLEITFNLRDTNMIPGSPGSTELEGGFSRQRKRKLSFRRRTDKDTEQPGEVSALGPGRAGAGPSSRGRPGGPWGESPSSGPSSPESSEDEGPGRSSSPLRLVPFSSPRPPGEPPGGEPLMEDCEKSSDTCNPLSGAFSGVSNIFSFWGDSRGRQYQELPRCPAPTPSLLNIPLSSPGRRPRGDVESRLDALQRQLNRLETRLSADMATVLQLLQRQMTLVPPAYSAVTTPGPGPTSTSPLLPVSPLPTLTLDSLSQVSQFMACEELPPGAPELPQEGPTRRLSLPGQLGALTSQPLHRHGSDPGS
Description: Test Example 8: hERG Test
For the purpose of assessing risk of an electrocardiogram QT interval prolongation of the compound of the present invention, effects of the compound of the present invention on delayed rectifier K+ current (IKr), which plays an important role in the ventricular repolarization process, was studied using HEK293 cells expressing human ether-a-go-go related gene (hERG) channel.
After a cell was retained at a membrane potential of −80 mV by whole cell patch clamp method using an automated patch clamp system (PatchXpress 7000A, Axon Instruments Inc.), IKr induced by depolarization pulse stimulation at +40 mV for 2 seconds and, further, repolarization pulse stimulation at −50 mV for 2 seconds, was recorded. After the generated current was stabilized, extracellular solution (NaCl: 135 mmol/L, KCl: 5.4 mmol/L, NaH2PO4: 0.3 mmol/L, CaCl2.2H2O: 1.8 mmol/L, MgCl2.6H2O: 1 mmol/L, glucose: 10 mmol/L, HEPES (4-(2-hydroxyethyl)-1-piperazineethanesulfonic acid): 10 mmol/L, pH=7.4), in which the compound of the present invention had been dissolved at an objective concentration, was applied to the cell at room temperature for 10 minutes. From the recording IKr, an absolute value of the tail peak current was measured based on the current value at the resting membrane potential using analysis software (DataXpress ver. 1, Molecular Devices Corporation).

[1] = test system: red blood cells prepared from a defibrinated blood of sheep; experiment: Light hemolysis test; format: cell-based; settings: 10 J/cm^2 UV-irradiation, 0.0008 to 0.1 w/v %
Protocol: Test Example 12: Light Hemolysis Test
The compound of the present invention was dissolved at target concentrations and was mixed with a 2.5 v/v % suspension of red blood cells prepared from a defibrinated blood of sheep on a microplate at concentrations of 0.0008 to 0.1 w/v %. The mixtures were exposed to 10 J/cm^2 of UV-irradiation within a range of wavelength 290 to 400 nm, UVA and UVB using ultra violet fluorescent lamps, GL20SE and FL20S-BLB lamps manufactured by Sankyo Denki Co., Ltd. and Panasonic Corporation, respectively. After the completion of the irradiation, the mixtures were centrifuged, and a supernatant of the mixture was collected and was located on a microplate. The phototoxicity was assessed by measuring an absorbance at wavelength of 540 nm and 630 nm in the supernatant. The absorbance data at wavelength of 540 nm and 630 nm were used as indicators of biomembrane damage (photohemolysis %) and hyperoxidation of lipid membrane (methemoglobin formation), respectively. The criteria of phototoxicity was as follows; It was judged to be non-phototoxic (−) when the photohemolysis %<10 and the maximal change in the absorbance at 630 nm (ΔOD)<0.05 were observed. It was judged to be […] when the photohemolysis was more than 10% and the maximal change in the absorbance at 630 nm (ΔOD) was more than 0.05.

For `O=C1c2c(O)c(=O)ccn2N([C@@H]2c3ccccc3SCc3c2ccc(F)c3F)[C@@H]2COCCN12` [III-2], which IC50 (CYP1A2) is on record?
Its IC50 is greater than 20 µM.

And the IC50 (CYP2C19)?
Its IC50 is greater than 20 µM.

And the IC50 (CYP2C9)?
The IC50 was greater than 20 µM.

And the IC50 (CYP2D6)?
Its IC50 is greater than 20 µM.

And the IC50 (CYP3A4)?
The IC50 was greater than 20 µM.

What about the inhibition at 10 min (hERG (IKr)) of the same compound?
Its inhibition at 10 min is 7.9%.

And the phototoxicity [1]?
The phototoxicity was “(−) (It was judged to be non-phototoxic (−) when the photohemolysis %<10 and the maximal change in the absorbance at 630 nm (ΔOD)<0.05 were observed)”.
